Among the data in ChEMBL document CHEMBL1156703, “Antitumor studies -- part 2: structure-activity relationship study for flavin analogs including investigations on their in vitro antitumor assay and docking simulation into protein tyrosine kinase” (Eur J Med Chem, 2008) are IC50 values, retold here.

One assay addresses Protein kinase C (PKC). Put plainly: Inhibition of rat brain protein kinase C.
The test system of a further assay is KB. Put plainly: Growth inhibition of human KB cells by MTT assay. The assay is classed as functional, cell-based. For orientation: Tetrazolium dyes change colour on reduction, which living cells bring about.

Converted amounts (≈) assume the structure as drawn.

Take `C[C@H]1CNCCN1S(=O)(=O)c1cccc2cnccc12`: the IC50 (in general, the concentration at which inhibition is half-maximal) at Protein kinase C (PKC) stood at 38.4 µg/mL (≈ 132 µM). On Protein kinase C (PKC), `CCn1c2nc(-c3ccccc3)nc(=O)c-2cc2ccccc21` yielded a concentration for half-maximal inhibition (IC50) of 12.9 µg/mL (≈ 42.8 µM). Regarding `Cc1ccc2c(c1)cc1c(=O)nc(-c3ccccc3)nc-1n2C`, the 50% inhibitory concentration (IC50) was 4.55 µg/mL (≈ 15.1 µM) at Protein kinase C (PKC) and 1.17 µg/mL (≈ 3.88 µM) with KB.

As to `Cn1c2nc(N)nc(=O)c-2cc2ccccc21`, the concentration for half-maximal inhibition (IC50) against Protein kinase C (PKC) turned out to be 14.8 µg/mL (≈ 65.4 µM).

`Cn1c2nc(-c3ccccc3)nc(=O)c-2cc2ccccc21` showed an IC50 against Protein kinase C (PKC) of 3.54 µg/mL (≈ 12.3 µM). Turning to `CCCCCCCCCCCCn1c2nc(=O)[nH]c(=O)c-2cc2ccc(Cl)cc21`, the IC50 against Protein kinase C (PKC) was over 100 µg/mL; with KB it was over 10 µg/mL. Taken in the same sequence, the figures for `O=c1nc2n(-c3ccccc3)c3ccccc3cc-2c(=O)[nH]1` were over 100 µg/mL and over 10 µg/mL. The corresponding values for `Cn1c(=O)nc2n(-c3ccccc3)c3ccccc3cc-2c1=O` are over 100 µg/mL and over 10 µg/mL. Taken in the same sequence, the figures for `Cn1c2nc(=O)n(-c3ccccc3)c(=O)c-2cc2ccccc21` were 60.1 µg/mL (≈ 198 µM) and over 10 µg/mL. As to `O=c1nc2n(-c3ccccc3)c3ccccc3cc-2c(=O)n1-c1ccccc1`, the IC50 against Protein kinase C (PKC) was over 100 µg/mL; with KB, over 10 µg/mL. For `CCCCn1c2nc(-c3ccccc3)nc(=O)c-2cc2ccccc21`, the IC50 in the assay with KB turned out to be 2.53 µg/mL (≈ 7.68 µM). As to `CCn1c2nc(=O)n(C)c(=O)c-2cc2ccccc21`, the IC50 against Protein kinase C (PKC) is 46.6 µg/mL (≈ 183 µM); in the assay with KB, over 10 µg/mL. Regarding `Cc1ccc2c(c1)cc1c(=O)n(C)c(=O)nc-1n2-c1ccccc1`, the IC50 at Protein kinase C (PKC) is 26.4 µg/mL (≈ 83.2 µM); in the assay with KB it was over 10 µg/mL. The corresponding values for `CCCCn1c2nc(=O)[nH]c(=O)c-2cc2ccccc21` are 89.7 µg/mL (≈ 333 µM) and over 10 µg/mL.

Take `CCCn1c2nc(=O)n(C)c(=O)c-2cc2ccccc21`: the IC50 is 46 µg/mL (≈ 171 µM) against Protein kinase C (PKC) and over 10 µg/mL with KB. The corresponding values for `CCn1c2nc(=O)n(-c3ccccc3)c(=O)c-2cc2ccccc21` are 53.3 µg/mL (≈ 168 µM) and over 10 µg/mL. In the case of `CCn1c2nc(=O)[nH]c(=O)c-2cc2cc(C)ccc21`, the results for the IC50 at Protein kinase C (PKC) and with KB were 10 µg/mL (≈ 39.2 µM) and over 10 µg/mL, respectively. With `CCCCn1c2nc(=O)n(C)c(=O)c-2cc2ccccc21`, the IC50 at Protein kinase C (PKC) was 23.9 µg/mL (≈ 84.4 µM); in the assay with KB, over 10 µg/mL. For `Nc1ccn([C@@H]2O[C@H](CO)[C@@H](O)[C@@H]2O)c(=O)n1` [CYTARABINE], the IC50 with KB amounted to 0.14 µg/mL (≈ 0.576 µM).
